From ChEMBL document CHEMBL3632539, “Identification of Bidentate Salicylic Acid Inhibitors of PTP1B” (ACS Med Chem Lett, 2015)
The source made the active and inactive calls. No cut-off for these calls is given here.

How the values were obtained:
[1] = biological target: T1, Tyrosine-protein phosphatase non-receptor type 1 (Homo sapiens, UniProt P18031); test: Competitive inhibition of GST-tagged PTP1B (unknown origin) by plate reader analysis using DiFMUP as substrate
T1 sequence (P18031 whole entry): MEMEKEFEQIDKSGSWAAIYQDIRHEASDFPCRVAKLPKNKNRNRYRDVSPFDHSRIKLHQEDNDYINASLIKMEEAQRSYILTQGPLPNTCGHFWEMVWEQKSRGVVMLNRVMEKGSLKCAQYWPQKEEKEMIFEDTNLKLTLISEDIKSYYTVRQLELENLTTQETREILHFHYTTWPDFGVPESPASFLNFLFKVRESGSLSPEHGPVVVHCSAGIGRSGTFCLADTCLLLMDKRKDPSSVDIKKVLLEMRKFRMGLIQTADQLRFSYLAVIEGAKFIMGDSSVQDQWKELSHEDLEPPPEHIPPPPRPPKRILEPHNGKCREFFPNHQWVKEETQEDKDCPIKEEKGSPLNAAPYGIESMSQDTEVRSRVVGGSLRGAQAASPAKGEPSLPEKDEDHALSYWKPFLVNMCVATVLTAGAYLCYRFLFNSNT

[2] = biological target: Receptor-type tyrosine-protein phosphatase F (Homo sapiens) (UniProt P10586); test: Inhibition of GST-tagged LAR (unknown origin) by plate reader analysis using DiFMUP as substrate
Homo sapiens [3] = species on record: Homo sapiens; test: Inhibition of GST-tagged PRL2 A/S mutant (unknown origin) by plate reader analysis using DiFMUP as substrate
[4] = biological target: T2, Dual specificity protein phosphatase 22 (Homo sapiens) (UniProt Q9NRW4); test: Inhibition of GST-tagged MKPX (unknown origin) by plate reader analysis using DiFMUP as substrate
T2 sequence (whole entry): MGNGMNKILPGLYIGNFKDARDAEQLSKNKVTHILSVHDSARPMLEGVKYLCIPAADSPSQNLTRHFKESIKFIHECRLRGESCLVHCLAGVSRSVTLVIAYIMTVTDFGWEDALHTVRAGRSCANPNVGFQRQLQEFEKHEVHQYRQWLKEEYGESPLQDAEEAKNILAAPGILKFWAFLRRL

Papain (Carica papaya) = biological target: T3, Papain (Carica papaya) (UniProt P00784); test: Inhibition of papaya papain by plate reader analysis using Z-Phe-Arg-pNA substrate
T3 sequence (whole entry): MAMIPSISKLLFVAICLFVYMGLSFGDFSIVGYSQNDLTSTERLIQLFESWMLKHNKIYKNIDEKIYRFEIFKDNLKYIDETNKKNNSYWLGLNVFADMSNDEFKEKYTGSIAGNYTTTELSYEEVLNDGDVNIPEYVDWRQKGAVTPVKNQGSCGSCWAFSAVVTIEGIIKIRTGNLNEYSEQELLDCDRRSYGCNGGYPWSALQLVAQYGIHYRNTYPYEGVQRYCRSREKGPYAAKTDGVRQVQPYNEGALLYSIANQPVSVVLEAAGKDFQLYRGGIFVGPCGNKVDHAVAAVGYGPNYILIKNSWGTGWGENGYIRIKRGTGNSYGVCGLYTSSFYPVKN

CHO [5] = test: Cytotoxicity against CHO cells expressing human insulin receptor at 0.78 to 50 uM after 72 hrs by cell-titer blue assay; type: cell-based, Cricetulus griseus; conditions: chinese hamster
CHO [6] = test: Inhibition of PTP1B in CHO cells assessed as increase in phosphorylation of transfected human insulin receptor by western blot analysis; type: cell-based; conditions: Cricetulus griseus
[7] = biological target: T4, Tyrosine-protein phosphatase non-receptor type 2 (Homo sapiens) (UniProt P17706); test: Inhibition of GST-tagged TCPTP (unknown origin) at 10 uM by plate reader analysis using DiFMUP as substrate
T4 sequence (whole entry): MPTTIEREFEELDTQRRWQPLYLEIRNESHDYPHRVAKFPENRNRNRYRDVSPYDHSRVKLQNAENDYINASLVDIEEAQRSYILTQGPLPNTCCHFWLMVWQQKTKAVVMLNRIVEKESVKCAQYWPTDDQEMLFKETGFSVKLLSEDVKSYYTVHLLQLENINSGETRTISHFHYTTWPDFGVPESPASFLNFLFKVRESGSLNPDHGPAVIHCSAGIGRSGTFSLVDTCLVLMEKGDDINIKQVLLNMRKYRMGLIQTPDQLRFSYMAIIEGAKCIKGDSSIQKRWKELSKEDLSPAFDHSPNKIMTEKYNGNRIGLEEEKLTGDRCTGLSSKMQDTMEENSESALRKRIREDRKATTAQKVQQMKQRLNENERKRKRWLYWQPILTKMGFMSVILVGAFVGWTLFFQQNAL

[8] = biological target: T5, Tyrosine-protein phosphatase non-receptor type 1 (Homo sapiens) (UniProt P18031); test: Inhibition of GST-tagged PTP1B (unknown origin) at 10 uM by plate reader analysis using DiFMUP as substrate
T5 sequence (whole entry): T1 sequence (P18031 whole entry)

[9] = biological target: T6, Receptor-type tyrosine-protein phosphatase S (Homo sapiens, UniProt Q13332); test: Inhibition of GST-tagged PTP-sigma (unknown origin) at 10 uM by plate reader analysis using DiFMUP as substrate
Homo sapiens [10] = species on record: Homo sapiens; test: Inhibition of GST-tagged PRL2 A/S mutant (unknown origin) at 10 uM by plate reader analysis using DiFMUP as substrate
[11] = biological target: Receptor-type tyrosine-protein phosphatase F (Homo sapiens) (UniProt P10586); test: Inhibition of GST-tagged LAR (unknown origin) at 10 uM by plate reader analysis using DiFMUP as substrate
[12] = biological target: T2, Dual specificity protein phosphatase 22 (Homo sapiens); test: Inhibition of GST-tagged MKPX (unknown origin) at 10 uM by plate reader analysis using DiFMUP as substrate
[13] = biological target: T7, Receptor-type tyrosine-protein phosphatase C (Homo sapiens) (UniProt P08575); test: Inhibition of GST-tagged CD45 D1D2 domain (unknown origin) at 10 uM by plate reader analysis using DiFMUP as substrate
T7 sequence (whole entry): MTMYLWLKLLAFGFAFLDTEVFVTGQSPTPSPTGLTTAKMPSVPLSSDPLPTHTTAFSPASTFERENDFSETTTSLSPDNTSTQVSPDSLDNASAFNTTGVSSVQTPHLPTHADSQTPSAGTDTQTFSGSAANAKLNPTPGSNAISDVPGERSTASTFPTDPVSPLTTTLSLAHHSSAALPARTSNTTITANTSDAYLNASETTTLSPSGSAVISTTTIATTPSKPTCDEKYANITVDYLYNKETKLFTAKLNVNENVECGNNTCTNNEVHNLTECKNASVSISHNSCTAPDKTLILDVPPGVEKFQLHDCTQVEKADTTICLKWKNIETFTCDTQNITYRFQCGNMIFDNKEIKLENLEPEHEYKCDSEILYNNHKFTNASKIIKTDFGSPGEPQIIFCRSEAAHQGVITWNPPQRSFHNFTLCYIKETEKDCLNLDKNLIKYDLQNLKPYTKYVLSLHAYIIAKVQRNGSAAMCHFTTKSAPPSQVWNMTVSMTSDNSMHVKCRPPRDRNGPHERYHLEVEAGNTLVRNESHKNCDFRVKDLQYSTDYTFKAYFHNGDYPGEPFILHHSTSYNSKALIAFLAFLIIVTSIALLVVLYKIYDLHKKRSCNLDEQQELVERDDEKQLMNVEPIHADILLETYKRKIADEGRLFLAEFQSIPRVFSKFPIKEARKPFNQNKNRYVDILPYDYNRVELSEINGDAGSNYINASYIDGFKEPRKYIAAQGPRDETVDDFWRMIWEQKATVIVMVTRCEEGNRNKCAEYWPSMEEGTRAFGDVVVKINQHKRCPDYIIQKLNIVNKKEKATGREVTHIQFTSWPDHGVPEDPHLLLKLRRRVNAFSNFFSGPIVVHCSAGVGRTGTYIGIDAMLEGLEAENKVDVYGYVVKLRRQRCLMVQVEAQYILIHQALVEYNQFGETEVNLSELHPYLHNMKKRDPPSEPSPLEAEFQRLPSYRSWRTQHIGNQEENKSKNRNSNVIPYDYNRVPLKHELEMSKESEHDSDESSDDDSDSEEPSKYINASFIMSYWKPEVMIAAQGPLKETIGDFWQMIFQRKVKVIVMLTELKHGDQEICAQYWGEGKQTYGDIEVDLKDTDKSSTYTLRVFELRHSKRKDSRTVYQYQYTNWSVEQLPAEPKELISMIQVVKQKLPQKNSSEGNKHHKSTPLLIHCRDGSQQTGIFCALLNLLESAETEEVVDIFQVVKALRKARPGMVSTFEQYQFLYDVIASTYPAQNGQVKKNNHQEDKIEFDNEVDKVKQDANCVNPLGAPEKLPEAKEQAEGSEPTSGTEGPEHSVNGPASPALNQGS

[14] = biological target: T1, Tyrosine-protein phosphatase non-receptor type 1; test: Inhibition of GST-tagged PTP1B (unknown origin) by plate reader analysis using DiFMUP as substrate
[15] = biological target: T6, Receptor-type tyrosine-protein phosphatase S; test: Inhibition of GST-tagged PTP-sigma (unknown origin) by plate reader analysis using DiFMUP as substrate
Homo sapiens [16] = species on record: Homo sapiens; test: Selectivity ratio, ratio of IC50 for PTP sigma (unknown origin) to IC50 for PTP1B (unknown origin)
CHO [17] = test: Inhibition of PTP1B in CHO cells assessed as increase in phosphorylation of transfected human insulin receptor at 50 uM by western blot analysis; type: cell-based; conditions: Cricetulus griseus
Homo sapiens [18] = species on record: Homo sapiens; test: Selectivity ratio, ratio of IC50 for PTP1B (unknown origin) to IC50 for PTP sigma (unknown origin)

Chain of Receptor-type tyrosine-protein phosphatase F (Homo sapiens) (P10586 whole entry): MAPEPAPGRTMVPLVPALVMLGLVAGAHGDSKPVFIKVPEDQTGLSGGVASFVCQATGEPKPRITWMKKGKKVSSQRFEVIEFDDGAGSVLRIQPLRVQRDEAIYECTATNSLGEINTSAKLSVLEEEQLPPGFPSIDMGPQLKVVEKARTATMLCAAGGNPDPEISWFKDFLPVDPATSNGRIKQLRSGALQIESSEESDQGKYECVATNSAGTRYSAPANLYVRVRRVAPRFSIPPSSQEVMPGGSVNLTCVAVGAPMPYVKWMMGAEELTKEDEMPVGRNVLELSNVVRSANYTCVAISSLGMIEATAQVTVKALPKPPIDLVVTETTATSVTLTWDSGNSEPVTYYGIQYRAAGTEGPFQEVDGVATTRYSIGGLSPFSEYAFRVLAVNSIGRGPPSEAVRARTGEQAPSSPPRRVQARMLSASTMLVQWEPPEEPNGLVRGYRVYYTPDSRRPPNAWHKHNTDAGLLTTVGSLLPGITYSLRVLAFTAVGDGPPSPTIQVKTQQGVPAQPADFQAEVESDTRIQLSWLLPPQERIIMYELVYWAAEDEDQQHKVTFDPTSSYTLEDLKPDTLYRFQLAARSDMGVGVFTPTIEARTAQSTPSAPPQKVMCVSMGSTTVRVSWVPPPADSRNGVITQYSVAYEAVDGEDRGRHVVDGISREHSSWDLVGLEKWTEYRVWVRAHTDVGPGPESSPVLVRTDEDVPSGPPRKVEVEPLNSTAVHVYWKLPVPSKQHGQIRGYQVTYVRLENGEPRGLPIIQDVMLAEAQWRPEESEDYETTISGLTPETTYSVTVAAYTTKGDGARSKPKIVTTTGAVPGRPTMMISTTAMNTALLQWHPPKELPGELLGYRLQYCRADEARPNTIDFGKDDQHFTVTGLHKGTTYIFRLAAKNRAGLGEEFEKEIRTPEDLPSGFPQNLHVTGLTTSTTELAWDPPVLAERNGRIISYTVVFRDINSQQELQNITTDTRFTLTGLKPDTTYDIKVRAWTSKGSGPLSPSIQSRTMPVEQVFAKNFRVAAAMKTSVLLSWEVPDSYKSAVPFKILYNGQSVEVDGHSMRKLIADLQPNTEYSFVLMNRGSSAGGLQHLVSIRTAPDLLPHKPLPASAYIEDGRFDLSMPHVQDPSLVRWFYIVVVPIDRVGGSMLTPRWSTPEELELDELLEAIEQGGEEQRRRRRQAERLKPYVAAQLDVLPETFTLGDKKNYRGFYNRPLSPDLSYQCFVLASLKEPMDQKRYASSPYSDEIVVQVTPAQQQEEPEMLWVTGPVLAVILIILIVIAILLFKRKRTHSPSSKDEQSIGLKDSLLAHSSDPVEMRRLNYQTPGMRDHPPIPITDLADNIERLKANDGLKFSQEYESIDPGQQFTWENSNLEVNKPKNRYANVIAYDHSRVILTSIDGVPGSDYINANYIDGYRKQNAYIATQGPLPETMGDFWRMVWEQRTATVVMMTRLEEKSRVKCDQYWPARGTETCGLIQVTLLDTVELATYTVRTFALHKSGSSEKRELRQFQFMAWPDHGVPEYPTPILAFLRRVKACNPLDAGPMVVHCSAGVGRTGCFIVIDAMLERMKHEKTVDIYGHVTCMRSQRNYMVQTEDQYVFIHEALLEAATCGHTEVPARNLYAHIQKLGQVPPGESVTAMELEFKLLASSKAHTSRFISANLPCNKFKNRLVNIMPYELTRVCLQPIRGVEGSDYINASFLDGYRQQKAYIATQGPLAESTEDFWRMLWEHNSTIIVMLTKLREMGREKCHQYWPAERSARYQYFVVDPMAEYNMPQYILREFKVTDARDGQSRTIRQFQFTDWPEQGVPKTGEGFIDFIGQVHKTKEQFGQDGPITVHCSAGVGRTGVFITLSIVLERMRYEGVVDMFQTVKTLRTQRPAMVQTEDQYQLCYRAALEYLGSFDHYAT
T6 sequence (Q13332 whole entry): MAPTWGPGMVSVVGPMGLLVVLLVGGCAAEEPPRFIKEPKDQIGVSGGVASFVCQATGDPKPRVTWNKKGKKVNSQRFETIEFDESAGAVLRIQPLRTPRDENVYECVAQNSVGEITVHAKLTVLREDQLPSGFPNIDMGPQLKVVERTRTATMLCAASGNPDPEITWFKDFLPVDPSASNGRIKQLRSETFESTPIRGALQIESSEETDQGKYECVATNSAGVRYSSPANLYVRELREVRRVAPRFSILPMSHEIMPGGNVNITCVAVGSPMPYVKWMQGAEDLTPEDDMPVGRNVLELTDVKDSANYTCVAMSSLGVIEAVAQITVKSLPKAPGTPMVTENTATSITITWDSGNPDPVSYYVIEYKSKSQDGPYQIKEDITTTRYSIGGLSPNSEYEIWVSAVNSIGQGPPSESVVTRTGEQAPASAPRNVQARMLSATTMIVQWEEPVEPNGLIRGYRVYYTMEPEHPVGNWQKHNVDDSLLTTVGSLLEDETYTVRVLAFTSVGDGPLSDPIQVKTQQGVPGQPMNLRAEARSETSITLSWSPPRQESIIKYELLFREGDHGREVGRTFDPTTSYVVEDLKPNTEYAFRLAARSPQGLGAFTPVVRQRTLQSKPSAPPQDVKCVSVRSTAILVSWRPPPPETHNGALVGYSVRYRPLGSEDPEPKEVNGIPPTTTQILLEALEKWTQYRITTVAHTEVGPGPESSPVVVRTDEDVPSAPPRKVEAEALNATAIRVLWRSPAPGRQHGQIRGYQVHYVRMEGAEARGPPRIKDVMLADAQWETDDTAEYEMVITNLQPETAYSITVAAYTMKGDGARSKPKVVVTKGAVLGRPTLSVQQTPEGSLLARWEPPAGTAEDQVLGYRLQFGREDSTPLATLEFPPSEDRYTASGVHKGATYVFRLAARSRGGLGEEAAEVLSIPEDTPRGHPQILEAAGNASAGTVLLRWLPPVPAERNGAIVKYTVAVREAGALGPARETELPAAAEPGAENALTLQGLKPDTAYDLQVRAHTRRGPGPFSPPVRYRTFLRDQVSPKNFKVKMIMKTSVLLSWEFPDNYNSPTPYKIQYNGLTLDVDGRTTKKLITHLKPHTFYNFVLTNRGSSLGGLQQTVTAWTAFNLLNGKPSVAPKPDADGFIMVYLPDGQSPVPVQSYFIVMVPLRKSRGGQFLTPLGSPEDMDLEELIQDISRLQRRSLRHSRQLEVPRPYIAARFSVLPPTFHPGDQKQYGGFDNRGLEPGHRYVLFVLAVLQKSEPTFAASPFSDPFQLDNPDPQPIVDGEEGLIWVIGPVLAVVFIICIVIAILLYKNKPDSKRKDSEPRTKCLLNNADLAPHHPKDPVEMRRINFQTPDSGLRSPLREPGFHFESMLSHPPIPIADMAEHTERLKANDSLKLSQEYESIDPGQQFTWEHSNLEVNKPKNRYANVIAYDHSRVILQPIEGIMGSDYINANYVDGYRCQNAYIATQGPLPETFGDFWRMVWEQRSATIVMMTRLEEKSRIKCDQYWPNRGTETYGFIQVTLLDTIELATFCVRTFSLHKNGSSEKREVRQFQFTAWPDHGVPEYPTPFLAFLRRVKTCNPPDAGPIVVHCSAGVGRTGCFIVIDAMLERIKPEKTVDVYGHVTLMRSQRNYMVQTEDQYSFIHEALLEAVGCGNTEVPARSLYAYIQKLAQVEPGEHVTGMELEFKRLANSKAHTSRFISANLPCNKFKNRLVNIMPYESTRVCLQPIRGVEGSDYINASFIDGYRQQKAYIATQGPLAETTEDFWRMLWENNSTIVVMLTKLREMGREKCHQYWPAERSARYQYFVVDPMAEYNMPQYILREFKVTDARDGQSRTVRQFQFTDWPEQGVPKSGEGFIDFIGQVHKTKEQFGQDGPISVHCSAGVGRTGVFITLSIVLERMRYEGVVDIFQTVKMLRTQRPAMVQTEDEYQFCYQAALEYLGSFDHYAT

Compound | Ki [1] [nM] | inhibition [2] | inhibition (Homo sapiens [3]) | inhibition [4] | inhibition (Papain (Carica papaya)) | Activity (CHO [5]) | Activity (CHO [6]) | inhibition [7] [%] | inhibition [8] [%] | inhibition [9] [%] | inhibition (Homo sapiens [10]) | inhibition [11] | inhibition [12] | inhibition [13] | IC50 [14] [nM] | IC50 [15] [nM] | Ratio IC50 (Homo sapiens [16]) | Activity (CHO [17]) | Ratio IC50 (Homo sapiens [18])
CN(CC(=O)N(Cc1ccc(C2CCCCC2)cc1)c1ccc(C(=O)O)c(O)c1)S(=O)(=O)c1cccc2cccnc12 | 5660 | inactive | inactive | inactive | inactive |  |  |  |  |  |  |  |  |  |  |  |  |  | 
O=C(CCCCCn1cc(CN(CC(=O)N(Cc2ccc(C3CCCCC3)cc2)c2ccc(C(=O)O)c(O)c2)S(=O)(=O)c2cccc3cccnc23)nn1)Nc1ccc(C(=O)O)c(O)c1 |  |  |  |  |  | Non-toxic | Dose-dependent effect | > 90 | > 90 | > 90 | inactive | inactive | inactive | inactive | 2400 | 900 |  |  | 
O=C(CCCn1cc(CN(CC(=O)N(Cc2ccc(C3CCCCC3)cc2)c2ccc(C(=O)O)c(O)c2)S(=O)(=O)c2cccc3cccnc23)nn1)Nc1ccc(C(=O)O)c(O)c1 |  |  |  |  |  | Non-toxic | Dose-dependent effect | > 90 | > 90 | > 90 | inactive | inactive | inactive | inactive | 1700 | 7900 | 4 |  | 
VANADATE |  |  |  |  |  |  |  |  |  |  |  |  |  |  |  |  |  | Active | 
O=C(CCCCn1cc(CN(CC(=O)N(Cc2ccc(C3CCCCC3)cc2)c2ccc(C(=O)O)c(O)c2)S(=O)(=O)c2cccc3cccnc23)nn1)Nc1ccc(C(=O)O)c(O)c1 |  |  |  |  |  |  |  | > 90 | > 90 | > 90 | inactive | inactive | inactive | inactive | 2300 | 600 |  |  | 4
O=C(Cn1cc(CN(CC(=O)N(Cc2ccc(C3CCCCC3)cc2)c2ccc(C(=O)O)c(O)c2)S(=O)(=O)c2cccc3cccnc23)nn1)Nc1ccc(C(=O)O)c(O)c1 | 1830 |  |  |  |  | Non-toxic | Dose-dependent effect | > 90 | > 90 | > 90 | inactive | inactive | inactive | inactive | 3600 | 15600 |  |  | 
O=C(CCn1cc(CN(CC(=O)N(Cc2ccc(C3CCCCC3)cc2)c2ccc(C(=O)O)c(O)c2)S(=O)(=O)c2cccc3cccnc23)nn1)Nc1ccc(C(=O)O)c(O)c1 |  |  |  |  |  |  |  | > 90 | > 90 | > 90 | inactive | inactive | inactive | inactive | 6100 | 11800 |  |  | 
